Here are results for 23 compounds from patent publication US20060178374A1, “Aminoheteroaryl compounds as protein kinase inhibitors” (AGOURON PHARMACEUTICALS, INC., priority 2004, published 2006).

Usually Ki stands for the equilibrium dissociation constant of an inhibitor or competing ligand from its target. Low values mean tighter binding, high ones weaker binding.

In this experiment the target is HGFR (c-Met) (Homo sapiens, UniProt P08581). The experiment can be described thus: HGFR Continuous-Coupled Spectrophotometric Assay. The format is biochemical. The note with it: HGFR enzyme 50 nM, Met-2 peptide substrate, 37° C. The protocol: The general procedure is as follows: compounds and kinase assay reagents are introduced into test wells. The assay is initiated by addition of the kinase enzyme. Enzyme inhibitors reduce the measured activity of the enzyme.
HGFR (c-Met), sequence (P08581 974-1390): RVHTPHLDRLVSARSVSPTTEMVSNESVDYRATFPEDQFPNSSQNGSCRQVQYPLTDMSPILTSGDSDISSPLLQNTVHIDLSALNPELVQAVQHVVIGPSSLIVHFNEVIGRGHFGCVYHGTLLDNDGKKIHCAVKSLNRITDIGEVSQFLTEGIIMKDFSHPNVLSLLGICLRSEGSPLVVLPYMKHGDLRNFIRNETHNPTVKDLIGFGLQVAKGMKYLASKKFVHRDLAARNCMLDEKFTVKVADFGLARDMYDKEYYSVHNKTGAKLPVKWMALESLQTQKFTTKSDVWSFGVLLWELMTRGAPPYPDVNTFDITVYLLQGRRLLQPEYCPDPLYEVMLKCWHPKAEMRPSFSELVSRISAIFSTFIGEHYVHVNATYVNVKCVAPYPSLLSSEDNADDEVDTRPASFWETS
In the continuous-coupled spectrophotometric assay the time-dependent production of ADP by the kinase is determined by analysis of the rate of consumption of NADH by measurement of the decrease in absorbance at 340 nm. As the PK produces ADP it is re-converted to ATP by reaction with phosphoenol pyruvate and pyruvate kinase. Pyruvate is also produced in this reaction. Pyruvate is subsequently converted to lactate by reaction with lactate dehydrogenase, which simultaneously converts NADH to NAD.
HGFR Continuous-Coupled Spectrophotometric Assay
This assay analyzes the tyrosine kinase activity of HGFR on the Met-2 substrate peptide, a peptide derived from the activation loop of the HGFR.
• 1. […] Dissolve up in 200 mM HEPES, pH 7.5 at 10 mM stock. • 3. 1 M PEP (phospho-enol-pyruvate) in 200 mM HEPES, pH 7.5 • 4. 100 mM NADH (B-Nicotinamide Adenine Dinucleotide, Reduced Form) in 200 mM HEPES, pH 7.5 • 5. 4 M MgCl2 (Magnesium Chloride) in ddH2O 6. 1 M DTT (Dithiothreitol) in 200 mM HEPES, pH 7.5 • 7. 15 Units/mL LDH (Lactic Dehydrogenase) • 8. 15 Units/mL PK (Pyruvate Kinase) • 9. 5M NaCl dissolved in ddH2O • 10. Tween-20 (Protein Grade) 10% Solution • 11. 1 M HEPES buffer: (N-[2-Hydroxethyl]piperazine-N-[2-ethanesulfonic acid]) Sodium Salt. Dissolve in ddH2O, adjust pH to 7.5, bring volume to 1 L. Filter at 0.1 μm. • 12. […] 100% DMSO (SIGMA) • 14. […] Beckman DU-650 w/ micro cell holders • 18. Beckman 4-position micro cell cuvette Procedure:
Prep Dilution Buffer (DB) for Enzyme (For 30 mL prep) • 1. DB final concentration is 2 mM DTT, 25 mM NaCl2, 5 mM MgCl2, 0.01% Tween-20, and 50 mM HEPES buffer, pH 7.5. • 2. Make up 50 mM HEPES by adding 1.5 mL 1 M HEPES into 28.1 mL of ddH2O. Add rest of the reagents. Into 50 mL conical vial, add 60 μL of 1M DTT, 150 μL 5M NaCl2, 150 μL 1M MgCl2, and 30 μL of 10% Tween-20 to give total volume of 30 mL. • 3. Vortex for 5-10 seconds. • 4. Aliquot out DB at 1 mL/tube and label tubes as “DB HGFR” • 5. Note: This can be prepared and stored ahead of time. • 6. Freeze un-used aliquots in microcentrifuge tubes at −20° C. freezer.
Prep Compounds • 1. For compound dilution plate, add 4 μL of 10 mM stock into column 1 of plate, and bring volume to 100 μL with 100% DMSO. • 2. Set up the Precision 2000 dilution method. A final concentration of 200 μM compound in 50% DMSO, 100 mM HEPES (1:2 serial dilution).
Prep Coupled Enzymatic Buffer:
1. Final concentration in assay:
• 2. For a 10 mL reaction buffer add 10 μL of 1M PEP, 33 μL of 100 mM NADH, 50 μL of 4M MgCl2, 20 μL of 1M DTT, 6 μL of 500 mM ATP, and […] of 10 mM Met-2 peptide into 100 mM HEPES buffer pH 7.5 and vortex/mix. • 3. Add coupling enzymes, LDH and PK, into reaction mix. Mix by gentle inversion.
1. Spectrophotometer settings:
• 2. Add 85 μL of CE reaction mix into each well of assay plate. • 3. Add 5 μL of diluted compound into a well of the assay plate. • 4. Add 5 μL of 50% DMSO for negative control into last column of assay plate. • 5. Mix with multi-channel pipettor or orbital shaker. • 6. Pre-incubate for 10 minutes at 37° C. • 7. Add 10 μL of 500 nM HGFR to each well of assay plate; the final HGFR concentration is 50 nM in a total final volume of 100 μL. • 8. Measure activity for 10 minutes at λ=340 nm and 37° C.
Ki data were obtained using the HGFR Continuous-Coupled Spectrophotometric Assay, and IC50 data were obtained using the Cellular HGFR Autophosphorylation Assay, both of which are described above.
The compound `CC(Oc1cc(Br)cnc1N)c1c(C#N)ccc(N(C)C)c1Cl` (centres unmarked) [Example 50, 2-{1-[(2-amino-5-bromopyridin-3-yl)oxy]ethyl}-3-chloro-4-(dimethylamino)benzonitrile] came in with an inhibition constant Ki of 1840 nM.

Compound `CC(Oc1cc(Br)cnc1N)c1c(C#N)ccc(F)c1Cl` (centres unmarked) [Example 51, 2-[1-(2-Amino-5-bromo-pyridin-3-yloxy)-ethyl]-3-chloro-4-fluoro-benzonitrile] yielded a Ki of 2090 nM.

The compound `CC(Oc1cc(-c2ccc(C(=O)N3CCC(N4CCCC4)CC3)cc2)cnc1N)c1ccc(Cl)cc1Cl` (centres unmarked) [Example 52, (4-{6-Amino-5-[1-(2,4-dichloro-phenyl)-ethoxy]-pyridin-3-yl}-phenyl)-(4-pyrrolidin-1-yl-piperidin-1-yl)-methanone] gave a Ki of 2140 nM.

On to `CC(Oc1cc(-c2ccc(C(=O)N3CCC(N4CCCC4)CC3)cc2)cnc1N)c1ccccc1` (centres unmarked) [Example 53, {4-[6-Amino-5-(1-phenyl-ethoxy)-pyridin-3-yl]-phenyl}-(4-pyrrolidin-1-yl-piperidin-1-yl)-methanone], for which the inhibitory constant (Ki) was found to be 11000 nM.

`CC(Oc1cc(-c2ccc(F)c(C(=O)N3C[C@@H](C)N[C@@H](C)C3)c2)cnc1N)c1c(Cl)ccc(F)c1Cl` (some centres unmarked) [Example 54, (5-{6-Amino-5-[1-(2,6-dichloro-3-fluoro-phenyl)-ethoxy]-pyridin-3-yl}-2-fluoro-phenyl)-(dimethyl-piperazin-1-yl)-methanone] displayed a Ki of 79 nM.

For `CC(Oc1cc(-c2ccc(F)c(C(=O)N3CCC(N4CCCC4)CC3)c2)cnc1N)c1c(Cl)ccc(F)c1Cl` (centres unmarked) [Example 55, (5-{6-Amino-5-[1-(2,6-dichloro-3-fluoro-phenyl)-ethoxy]-pyridin-3-yl}-2-fluoro-phenyl)-(4-pyrrolidin-1-yl-piperidin-1-yl)-methanone], the Ki was 102 nM. This Ki and that of the compound before are within 1.5-fold of each other.

In turn, `Cc1ccc(F)c(C(C)Oc2cc(-c3ccc(C(=O)N4CCC(N5CCCC5)CC4)cc3)cnc2N)c1Cl` (centres unmarked) [Example 56, (4-{6-Amino-5-[1-(2-chloro-6-fluoro-3-methyl-phenyl)-ethoxy]-pyridin-3-yl}-phenyl)-(4-pyrrolidin-1-yl-piperidin-1-yl)-methanone] returned a Ki of 173 nM.

In the case of `CC(Oc1cc(-c2cn(CC(=O)OC(C)(C)C)cn2)cnc1N)c1c(Cl)ccc(F)c1Cl` (centres unmarked) [Example 58, (4-{6-Amino-5-[1-(2,6-dichloro-3-fluoro-phenyl)-ethoxy]-pyridin-3-yl}-imidazol-1-yl)-acetic acid tert-butyl ester], the Ki is 578 nM.

Consider `CC(Oc1cc(-c2cn(CCN3CCOCC3)cn2)cnc1N)c1c(Cl)ccc(F)c1Cl` (centres unmarked) [Example 59, 3-[1-(2,6-Dichloro-3-fluoro-phenyl)-ethoxy]-5-[1-(2-morpholin-4-yl-ethyl)-1H-imidazol-4-yl]-pyridin-2-ylamine], for which the Ki is 155 nM. Compared with the last compound, the Ki is about 3.7-fold lower.

Regarding `CC(Oc1cc(-c2cn(CC(=O)NCCN3CCCC3)cn2)cnc1N)c1c(Cl)ccc(F)c1Cl` (centres unmarked) [Example 60, 2-(4-{6-Amino-5-[1-(2,6-dichloro-3-fluoro-phenyl)-ethoxy]-pyridin-3-yl}-imidazol-1-yl)-N-(2-pyrrolidin-1-yl-ethyl)-acetamide], the Ki turned out to be 599 nM.

Turning to `CC(Oc1cc(-c2ccc(N3CCOCC3)nc2)cnc1N)c1c(Cl)ccc(F)c1Cl` (centres unmarked) [Example 61, 5-[1-(2,6-Dichloro-3-fluoro-phenyl)-ethoxy]-6′-morpholin-4-yl-[3,3′]bipyridinyl-6-ylamine], the inhibitory constant (Ki) is 72 nM.

With `CC(Oc1cc(-c2ccc(N3CCN(C)CC3)nc2)cnc1N)c1c(Cl)ccc(F)c1Cl` (centres unmarked) [Example 63, 5-[1-(2,6-Dichloro-3-fluoro-phenyl)-ethoxy]-6′-(4-methyl-piperazin-1-yl)-[3,3′]bipyridinyl-6-ylamine], the Ki is 35.3 nM.

`CC(Oc1cc(-c2ccc(N3CCC(O)CC3)nc2)cnc1N)c1c(Cl)ccc(F)c1Cl` (centres unmarked) [Example 64, 6″-Amino-5″-[1-(2,6-dichloro-3-fluoro-phenyl)-ethoxy]-3,4,5,6-tetrahydro-2H-[1,2′;5′,3″]terpyridin-4-ol] displayed a Ki of 19.3 nM.

Take `CC(Oc1cc(-c2ccc(N3CCC(CO)CC3)nc2)cnc1N)c1c(Cl)ccc(F)c1Cl` (centres unmarked) [Example 65, {6″-Amino-5″-[1-(2,6-dichloro-3-fluoro-phenyl)-ethoxy]-3,4,5,6-tetrahydro-2H-[1,2′;5′,3″]terpyridin-4-yl}-methanol]: the Ki is 43.5 nM.

`CC(Oc1cc(-c2ccc(N3CCN(CCO)CC3)nc2)cnc1N)c1c(Cl)ccc(F)c1Cl` (centres unmarked) [Example 66, 2-(4-{6′-Amino-5′-[1-(2,6-dichloro-3-fluoro-phenyl)-ethoxy]-[3,3′]bipyridinyl-6-yl}-piperazin-1-yl)-ethanol] gave an inhibition constant Ki of 32.7 nM.

Take `CC(Oc1cc(-c2ccc(N3CCC(N4CCCC4)CC3)nc2)cnc1N)c1c(Cl)ccc(F)c1Cl` (centres unmarked) [Example 67, 5″-[1-(2,6-Dichloro-3-fluoro-phenyl)-ethoxy]-4-pyrrolidin-1-yl-3,4,5,6-tetrahydro-2H-[1,2′;5′,3″]terpyridin-6″-ylamine]: the inhibition constant Ki amounted to 23.1 nM.

Regarding `CCN(CC)CCC(=O)NCc1cccc(-c2cnc(N)c(OC(C)c3c(Cl)ccc(F)c3Cl)c2)c1` (centres unmarked) [Example 68, N-(3-{6-Amino-5-[1-(2,6-dichloro-3-fluoro-phenyl)-ethoxy]-pyridin-3-yl}-benzyl)-3-diethylamino-propionamide], the Ki worked out at 68.1 nM.

The compound `CC(Oc1cc(-c2ccc(N3CCN(CCN(C)C)CC3)nc2)cnc1N)c1c(Cl)ccc(F)c1Cl` (centres unmarked) [Example 69, 5-[1-(2,6-Dichloro-3-fluoro-phenyl)-ethoxy]-6′-[4-(2-dimethylamino-ethyl)-piperazin-1-yl]-[3,3′]bipyridinyl-6-ylamine] had a Ki of 39 nM.

In turn, `CC(Oc1cc(-c2cccc(CNC(=O)CN(C)C)c2)cnc1N)c1c(Cl)ccc(F)c1Cl` (centres unmarked) [Example 70, N-(3-{6-Amino-5-[1-(2,6-dichloro-3-fluoro-phenyl)-ethoxy]-pyridin-3-yl}-benzyl)-2-dimethylamino-acetamide] displayed a Ki of 52 nM.

The compound `CC(Oc1cc(-c2ccc(OC3CCNCC3)nc2)cnc1N)c1c(Cl)ccc(F)c1Cl` (centres unmarked) [Example 71, 5-[1-(2,6-Dichloro-3-fluoro-phenyl)-ethoxy]-6′-(piperidin-4-yloxy)-[3,3′]bipyridinyl-6-ylamine] gave an inhibition constant Ki of 27 nM.

Regarding `CC(Oc1cc(-c2cccc(CNC(=O)CCN)c2)cnc1N)c1c(Cl)ccc(F)c1Cl` (centres unmarked) [Example 72, 3-Amino-N-(3-{6-amino-5-[1-(2,6-dichloro-3-fluoro-phenyl)-ethoxy]-pyridin-3-yl}-benzyl)-propionamide], the affinity, expressed as Ki, was 49 nM. Against the preceding compound, the Ki is about 1.8-fold higher.

Compound `CC(Oc1cc(-c2ccc(N3CCNCC3)nc2)cnc1N)c1c(Cl)ccc(F)c1Cl` (centres unmarked) [Example 73, 5-[1-(2,6-Dichloro-3-fluoro-phenyl)-ethoxy]-6′-piperazin-1-yl-[3,3′]bipyridinyl-6-ylamine] gave a Ki of 21 nM.

Consider `CC(Oc1cc(-c2ccc(OCCC3CCNCC3)nc2)cnc1N)c1c(Cl)ccc(F)c1Cl` (centres unmarked) [Example 74, 5-[1-(2,6-Dichloro-3-fluoro-phenyl)-ethoxy]-6′-(2-piperidin-4-yl-ethoxy)-[3,3′]bipyridinyl-6-ylamine], for which the Ki turned out to be 47 nM.
